Assay results published in patent US20240327430A1 (Breakpoint Therapeutics GmbH, priority 2023, published 2024).
Where two headings read alike, the source gives them in different places.

Molecular target: truncated Polθ protein (Polθ-Hel containing the helicase domain (67-894)) (Homo sapiens (Human), UniProt O75417)
Assay: Polθ ATPase assay (Biological Assay 1, ADP-Glo luminescence)
Type: biochemical
Description: The Polθ ATPase assay was used to evaluate inhibitors of Polθ ATPase activity, in vitro. Experiments were performed using a truncated Polθ protein (Polθ-Hel containing the helicase domain (67-894), ATP and a DNA single strand Oligo (5′-CTGTCCTGCATGATG-3′) in the Polθ assay buffer (20 mM Tis-HCl (pH 8.8), MgCl2 5 mM, tween20 0.01%, NP40 0.01%, BSA 0.01%, DTT 1 mM). 2 μL of assay buffer containing Pole-Hel protein (0.5 nM) and DNA substrate (500 nM) was transferred into assay ready plates, containing 0.04 μL of compounds diluted in DMSO. After a 30 minutes incubation at 23° C. in the dark, the reaction was triggered by adding 2 μL of ATP (60 μM), in assay buffer. After 60 minutes at 23° C., 4 μl of ADP-Glo™ Reagent (Glo 1) was added followed by 40 minutes of incubation, then 8 μl of ADP-Glom kinase Detection Reagent (Glo 2) followed by 60 minutes of incubation at 23° C. Luminescence was then measured using Tecan F200 infinite plate reader. Raw data were analysed using GeneData to generate IC50 values.
The Polθ ATPase assay described in Biological Assay 1 above was used to evaluate inhibitors of Polθ ATPase activity for the compounds described in the Experimental Part B above, in vitro.

[1] = Polθ-Hel 0.5 nM, DNA substrate 500 nM, ATP 60 μM, 23° C., read-out: Pole ATPase assay IC50
[2] = Table B, compounds of Experimental Part B, in vitro, read-out: Polθ ATPase assay IC50

truncated Polθ protein (Polθ-Hel containing the helicase domain (67-894)), sequence (O75417 67-894): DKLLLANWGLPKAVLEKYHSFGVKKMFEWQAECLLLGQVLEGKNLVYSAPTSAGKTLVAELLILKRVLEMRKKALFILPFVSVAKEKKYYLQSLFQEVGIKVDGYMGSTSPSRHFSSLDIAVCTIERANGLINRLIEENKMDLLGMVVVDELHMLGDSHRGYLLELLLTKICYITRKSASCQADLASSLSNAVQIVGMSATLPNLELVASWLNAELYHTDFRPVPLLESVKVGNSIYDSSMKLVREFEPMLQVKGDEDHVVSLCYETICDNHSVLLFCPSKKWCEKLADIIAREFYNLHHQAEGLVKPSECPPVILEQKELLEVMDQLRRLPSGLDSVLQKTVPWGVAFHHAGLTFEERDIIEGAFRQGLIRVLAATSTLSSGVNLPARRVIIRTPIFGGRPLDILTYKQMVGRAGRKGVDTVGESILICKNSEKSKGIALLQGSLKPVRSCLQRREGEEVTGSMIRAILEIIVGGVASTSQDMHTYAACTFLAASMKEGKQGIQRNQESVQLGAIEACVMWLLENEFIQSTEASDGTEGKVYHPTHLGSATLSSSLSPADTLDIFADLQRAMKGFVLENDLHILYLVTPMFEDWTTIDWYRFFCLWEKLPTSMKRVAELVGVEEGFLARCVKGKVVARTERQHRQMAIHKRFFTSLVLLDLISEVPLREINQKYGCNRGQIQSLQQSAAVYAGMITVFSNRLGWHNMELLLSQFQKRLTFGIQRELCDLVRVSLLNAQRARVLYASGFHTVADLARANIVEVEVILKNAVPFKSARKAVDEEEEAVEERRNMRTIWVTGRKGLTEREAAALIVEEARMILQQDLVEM

IC50 [1]	IC50 [2]	Compound
< 100 nM	–	COc1cnc(C(F)F)cc1-c1cc(C)ncc1C(=O)Nc1nc2cnc(N3CCOCC3)nc2s1 [Example 89]
< 100 nM	–	COc1cnc(Cl)cc1-c1cc(C)ncc1C(=O)Nc1nc2ccc(S(=O)(=O)N(C)C)cc2s1 [Example 66, 2′-chloro-N-[6-(dimethylsulfamoyl)-1,3-benzothiazol-2-yl]-5′-methoxy-6-methyl-[4,4′-bipyridine]-3-carboxamide]
< 100 nM	–	COc1cnc(Cl)cc1-c1cc(C)ncc1C(=O)Nc1nc2cnc(N3C[C@@H]4C[C@H]3CO4)nc2s1 [Example 34, 2′-chloro-5′-methoxy-6-methyl-N-{5-[(1S,4S)-2-oxa-5-azabicyclo[2.2.1]heptan-5-yl]-[1,3]thiazolo[5,4-d]pyrimidin-2-yl}-[4,4′-bipyridine]-3-carboxamide]
< 100 nM	–	COc1cnc(Cl)cc1-c1cc(C)ncc1C(=O)Nc1nc2ccc(N3CCN(C)CC3=O)cc2s1 [Example 86, 2′-chloro-5′-methoxy-6-methyl-N-[6-(4-methyl-2-oxopiperazin-1-yl)-1,3-benzothiazol-2-yl]-[4,4′-bipyridine]-3-carboxamide]
< 100 nM	–	COc1cnc(Cl)cc1-c1cc(C)ncc1C(=O)Nc1nc2ncc(N3CCCCC3=O)cc2s1 [Example 70]
< 100 nM	–	COc1cnc(Cl)cc1-c1cc(C)ncc1C(=O)Nc1nc2cnc(N3CCN(C)CC3)nc2s1 [Example 28, 2′-chloro-5′-methoxy-6-methyl-N-[5-(4-methylpiperazin-1-yl)-[1,3]thiazolo[5,4-d]pyrimidin-2-yl]-[4,4′-bipyridine]-3-carboxamide]
< 100 nM	–	COc1cnc(Cl)cc1-c1cc(C)ncc1C(=O)Nc1nc2cnc(N3CCC(OC)C3)nc2s1 (stereo not drawn) [Example 32, 2′-chloro-5′-methoxy-N-[5-(3-methoxypyrrolidin-1-yl)-[1,3]thiazolo[5,4-d]pyrimidin-2-yl]-6-methyl-[4,4′-bipyridine]-3-carboxamide]
< 100 nM	–	COc1cnc(Cl)cc1-c1cc(C)ncc1C(=O)Nc1nc2cnc(N3CC4(COC4)C3)nc2s1 [Example 29, 2′-chloro-5′-methoxy-6-methyl-N-(5-{2-oxa-6-azaspiro[3.3]heptan-6-yl}-[1,3]thiazolo[5,4-d]pyrimidin-2-yl)-[4,4′'-bipyridine]-3-carboxamide]
> 1000 nM	–	COc1ccccc1-c1cnccc1C(=O)Nc1nc2ncccc2s1 [Example 11, 3-(2-methoxyphenyl)-N-{[1,3]thiazolo[4,5-b]pyridin-2-yl}pyridine-4-carboxamide]
100 to 1000 nM	–	COc1cnc(Cl)cc1-c1cc(C)ncc1C(=O)Nc1nc2ccc(C3(O)CCOC3)cc2s1 (stereo not drawn) [Example 40, 2′-chloro-N-[6-(3-hydroxyoxolan-3-yl)-1,3-benzothiazol-2-yl]-5′-methoxy-6-methyl-[4,4′-bipyridine]-3-carboxamide]
–	< 100 nM	COc1cnc(Cl)cc1-c1cc(C)ncc1C(=O)Nc1nc2cnc(NCC(C)(C)O)cc2s1 [Example 130, 2′-chloro-N-{6-[(2-hydroxy-2-methylpropyl)amino]-[1,3]thiazolo[4,5-c]pyridin-2-yl}-5′-methoxy-6-methyl-[4,4′-bipyridine]-3 carboxamide]
< 100 nM	–	COCCNc1ncc2nc(NC(=O)c3cnc(C)cc3-c3cc(Cl)ncc3OC)sc2n1 [Example 30, 2′-chloro-5′-methoxy-N-{5-[(2-methoxyethyl)amino]-[1,3]thiazolo[5,4-d]pyrimidin-2-yl}-6-methyl-[4,4′-bipyridine]-3-carboxamide]
< 100 nM	–	COc1cnc(Cl)cc1-c1cc(C)ncc1C(=O)Nc1nc2ncc(N3CCC(O)CC3)cc2s1 [Example 71, 2′-chloro-N-[6-(4-hydroxypiperidin-1-yl)-[1,3]thiazolo[4,5-b]pyridin-2-yl]-5′-methoxy-6-methyl-[4,4′-bipyridine]-3-carboxamide]
–	< 100 nM	COCCNC(=O)c1ccc2sc(NC(=O)c3cnc(C)cc3-c3cc(Cl)ncc3OC)nc2c1 [Example 107, 2′-chloro-5′-methoxy-N-{5-[(2-methoxyethyl)carbamoyl]-1,3-benzothiazol-2-yl}-6-methyl-[4,4′-bipyridine]-3-carboxamide]
< 100 nM	–	COc1cnc(Cl)cc1-c1cc(C)ncc1C(=O)Nc1nc2ccc(S(C)(=N)=O)cc2s1 (stereo not drawn) [Example 83, 2′-chloro-N-{6-[imino(methyl)oxo-λ^6-sulfanyl]-1,3-benzothiazol-2-yl}-5′-methoxy-6-methyl-[4,4′-bipyridine]-3-carboxamide]
< 100 nM	–	COc1cnc(Cl)cc1-c1cc(C)ncc1C(=O)Nc1nc2cnc(N3CCC(F)(F)CC3)nc2s1 [Example 21, 2′-chloro-N-[5-(4,4-difluoropiperidin-1-yl)-[1,3]thiazolo[5,4-d]pyrimidin-2-yl]-5′-methoxy-6-methyl-[4,4′-bipyridine]-3-carboxamide]
100 to 1000 nM	–	COc1ccccc1-c1cnccc1C(=O)Nc1nc2cncnc2s1 [Example 8, 3-(2-methoxyphenyl)-N-{[1,3]thiazolo[5,4-d]pyrimidin-2-yl}pyridine-4-carboxamide]
< 100 nM	–	COc1cnc(Cl)cc1-c1cc(C)ncc1C(=O)Nc1nc2ccc(NS(C)(=O)=O)cc2s1 [Example 41, 2′-chloro-N-(6-methanesulfonamido-1,3-benzothiazol-2-yl)-5′-methoxy-6-methyl-[4,4′-bipyridine]-3-carboxamide]
< 100 nM	–	COc1cnc(Cl)cc1-c1cc(C)ncc1C(=O)Nc1nc2cnc(N3CCC(O)CC3)nc2s1 [Example 33, 2′-chloro-N-[5-(4-hydroxypiperidin-1-yl)-[1,3]thiazolo[5,4-d]pyrimidin-2-yl]-5′-methoxy-6-methyl-[4,4′-bipyridine]-3-carboxamide]
–	< 100 nM	COc1cnc(Cl)cc1-c1cc(C)ncc1C(=O)Nc1nc2cc(O)ccc2s1 [Example 122, 2′-chloro-N-(5-hydroxy-1,3-benzothiazol-2-yl)-5′-methoxy-6-methyl-[4,4′-bipyridine]-3-carboxamide]
< 100 nM	–	COc1cnc(Cl)cc1-c1cc(C)ncc1C(=O)Nc1nc2ccc(N3CCOC3=O)cc2s1 [Example 59, 2′-chloro-5′-methoxy-6-methyl-N-[6-(2-oxo-1,3-oxazolidin-3-yl)-1,3-benzothiazol-2-yl]-[4,4′-bipyridine]-3-carboxamide]
< 100 nM	–	COc1cnc(Cl)cc1-c1cc(C)ncc1C(=O)Nc1nc2cnc(N3CC(O)C3)nc2s1 [Example 31, 2′-chloro-N-[5-(3-hydroxyazetidin-1-yl)-[1,3]thiazolo[5,4-d]pyrimidin-2-yl]-5′-methoxy-6-methyl-[4,4′-bipyridine]-3-carboxamide]
< 100 nM	–	COc1cnc(Cl)cc1-c1cc(C)ncc1C(=O)Nc1nc2cnc(N3CCC(F)(F)C3)nc2s1 [Example 25, 2′-chloro-N-[5-(3,3-difluoropyrrolidin-1-yl)-[1,3]thiazolo[5,4-d]pyrimidin-2-yl]-5′-methoxy-6-methyl-[4,4′-bipyridine]-3-carboxamide]
> 1000 nM	–	COc1ccccc1-c1cnccc1C(=O)Nc1nc2cnccc2s1 [Example 10, 3-(2-methoxyphenyl)-N-{[1,3]thiazolo[4,5-c]pyridin-2-yl}pyridine-4-carboxamide]
–	< 100 nM	CNC(=O)C(F)(F)Oc1ccc2sc(NC(=O)c3cnc(C)cc3-c3cc(Cl)ncc3OC)nc2c1 [Example 102, 2′-chloro-N-{5-[difluoro(methylcarbamoyl)Methoxy]-1,3-benzothiazol-2-yl}-5′-methoxy-6-methyl-[4,4′-bipyridine]-3-carboxamide]

Compound	IC50 [1]	IC50 [2]
COc1cnc(Cl)cc1-c1cc(C)ncc1C(=O)Nc1nc2ccc(N3CCCC3=O)cc2s1 [Example 56, 2′-chloro-5′-methoxy-6-methyl-N-[6-(2-oxopyrrolidin-1-yl)-1,3-benzothiazol-2-yl]-[4,4′-bipyridine]-3-carboxamide]	< 100 nM	–
COc1cnc(Cl)cc1-c1cc(C)ncc1C(=O)Nc1nc2ccc(N3CCC(O)CC3)nc2s1 [Example 74, 2′-chloro-N-[5-(4-hydroxypiperidin-1-yl)-[1,3]thiazolo[5,4-b]pyridin-2-yl]-5′-methoxy-6-methyl-[4,4′-bipyridine]-3-carboxamide]	< 100 nM	–
COc1cnc(C(F)(F)F)cc1-c1cc(CC(=O)N(C)C)ncc1C(=O)Nc1nc2cncnc2s1 [Example 116, 6-[(dimethylcarbamoyl)methyl]-5′-methoxy-N-{[1,3]thiazolo[5,4d]pyrimidin-2-yl}-2′-(trifluoromethyl)-[4,4′-bipyridine]-3-carboxamide]	–	< 100 nM
COc1cnc(Cl)cc1-c1cc(C)ncc1C(=O)Nc1nc2cnc(N3CC4CCC(C3)N4)nc2s1 [Example 54, 2′-chloro-N-(5-{3,8-diazabicyclo[3.2.1]octan-3-yl}-[1,3]thiazolo[5,4-d]pyrimidin-2-yl)-5′-methoxy-6-methyl-[4,4′-bipyridine]-3-carboxamide]	< 100 nM	–
COc1cnc(Cl)cc1-c1cc(C)ncc1C(=O)Nc1nc2ccc(N3CCCCC3=O)nc2s1 [Example 73, 2′-chloro-5′-methoxy-6-methyl-N-[5-(2-oxopiperidin-1-yl)-[1,3]thiazolo[5,4-b]pyridin-2-yl]-[4,4′-bipyridine]-3-carboxamide]	< 100 nM	–
